What was measured:
[1] = system: Tetranychus telarius (red spider mites, eggs); assay: Pest toxicity test; format: in vivo; conditions: 0.1% by weight; French bean; 3 days
Rice = assay: Further herbicidal test, various rates; format: in vivo; conditions: scale 0 to 5 (complete kill)
Oat = assay: Further herbicidal test, various rates; format: in vivo; conditions: scale 0 to 5 (complete kill)
Groundsel = assay: Selective herbicidal activity; format: in vivo, Senecio vulgaris; conditions: 28 days, scale 0 to 10 (complete kill)
Description: (§1) This Example illustrates the selective herbicidal activity of compounds No. 5 and 12 of Table 1. The compounds, formulated as in Example 5 were sprayed on to pots of soil previously sown with seeds of the plant species shown in Tables 13 and 14.
Groundsel Senecio vulgaris

White mustard = assay: Selective herbicidal activity; format: in vivo, Sinapis alba; conditions: 28 days, scale 0 to 10 (complete kill)
Description: as §1
White mustard Sinapis alba

[2] = system: Plutella maculipennis (diamond back moth larvae); assay: Pest toxicity test; format: in vivo; conditions: 0.1% by weight; mustard/paper; 2 days
[3] = system: Venturia inaequalis (apple); assay: Fungicidal test against foliar disease G (foliage spray plus soil drench); format: in vivo; conditions: 100 ppm spray and drench; 21 days
Protocol: This Example illustrates the fungicidal properties of compounds used as active ingredients in the compositions of the invention. The compounds were tested against a wide variety of foliar fungal diseases of plants. In the test, a composition comprising an aqueous solution or suspension of the test compound was sprayed on to the foliage or uninfected plants; the soil in which the plants were growing was also drenched with the composition. The compositions used for spraying and drencing contained 100 parts per million (ppm.) of the test compound except where otherwise stated in the table of results below. After spraying and drenching, the plants were then exposed to infection with the diseases it was desired to control, along with control plants not treated with the compound. After a period of days, depending upon the particular disease, the extent of the disease was visually assessed, as a percentage of the disease established upon the control plants which had not been treated with the compound under test, according to the grading scheme below
In Table 2 below the names of the disease is given in the first column, and in the second column is given the time which elapsed between exposing the plants to infection and assessing the amount of disease.

[4] = system: Aedes aegypti (mosquito adults); assay: Pest toxicity test; format: in vivo; conditions: 0.01% by weight; plywood; 1 day
[5] = system: Tetranychus telarius (red spider mites, adults); assay: Pest toxicity test; format: in vivo; conditions: 0.1% by weight; French bean; 3 days
Wild oat = assay: Selective herbicidal activity; format: in vivo, Avenua fatua; conditions: 28 days, scale 0 to 10 (complete kill)
Description: as §1

[6] = system: Phaedon cochleariae (mustard beetles); assay: Pest toxicity test; format: in vivo; conditions: 0.1% by weight; mustard/paper; 2 days
Aphis fabae = assay: Pest toxicity test; format: in vivo; conditions: 0.1% by weight; broad bean; 2 days
Barley [7] = assay: Further herbicidal test, various rates; format: in vivo; conditions: scale 0 to 5 (complete kill)
Wheat [8] = assay: Selective herbicidal activity; format: in vivo; conditions: for Damage to plants: 28 days, scale 0 to 10 (complete kill)
Description: as §1
(§2) Table 14 gives the results for compound No. 12 of Table 1 The figures are assessments of damage to the plants 23 days after treatment, on a scale of 0 to 5 where 0 is no effect and 5 is complete kill

broadleaved plants = assay: Selective herbicidal activity; format: in vivo; conditions: Tables 13 and 14
Description: as §1, §2

Barley [9] = assay: Selective herbicidal activity; format: in vivo; conditions: for Damage to plants: 28 days, scale 0 to 10 (complete kill)
Description: as §1, §2

Kale = assay: Further herbicidal test, various rates; format: in vivo; conditions: scale 0 to 5 (complete kill)
Chickweed = assay: Selective herbicidal activity; format: in vivo, Stellaria media; conditions: 28 days, scale 0 to 10 (complete kill)
Description: as §1
Chickweed Stellaria media

Redshank = assay: Selective herbicidal activity; format: in vivo, Polygonum persicaria; conditions: 28 days, scale 0 to 10 (complete kill)
Description: as §1
Redshank Polygonum persicaria

[10] = system: Plasmopara viticola (vine); assay: Fungicidal test against foliar disease C (foliage spray plus soil drench); format: in vivo; conditions: 100 ppm spray and drench; 10 days
[11] = system: Musca domestica (houseflies); assay: Pest toxicity test, contact test; format: in vivo; conditions: 0.1% by weight; milk/sugar; 2 days; flies sprayed directly
Lettuce = assay: Herbicidal test, pre- and post-emergence; format: in vivo; conditions: 10 lb/acre (11.2 kg/ha); scale 0 (no effect) to 3 (complete kill)
Maize = assay: Herbicidal test, pre- and post-emergence; format: in vivo; conditions: 10 lb/acre (11.2 kg/ha); scale 0 (no effect) to 3 (complete kill)
Mayweed = assay: Selective herbicidal activity; format: in vivo, Tripleurospermum maritimum ssp. inodorum; conditions: 28 days, scale 0 to 10 (complete kill)
Description: as §1
Mayweed Tripleurospermum maritimum

Annual Nettle = assay: Selective herbicidal activity; format: in vivo, Urtica urens; conditions: 28 days, scale 0 to 10 (complete kill)
Description: as §1
Annual Nettle Urtica urens

Uncinula necator (vine) = assay: Fungicidal test against foliar disease D (foliage spray plus soil drench); format: in vivo; conditions: 100 ppm spray and drench; 10 days
Sugar beet = assay: Further herbicidal test, various rates; format: in vivo; conditions: scale 0 to 5 (complete kill)
Pea = assay: Further herbicidal test, various rates; format: in vivo; conditions: scale 0 to 5 (complete kill)
Carrot = assay: Further herbicidal test, various rates; format: in vivo; conditions: scale 0 to 5 (complete kill)
Megoura viceae = assay: Pest toxicity test; format: in vivo; conditions: 0.1% by weight; broad bean; 2 days
[12] = system: Aedes aegypti (mosquito larvae); assay: Pest toxicity test; format: in vivo
[13] = system: Pieris brassicae (cabbage white caterpillars); assay: Pest toxicity test; format: in vivo; conditions: 0.1% by weight, 2 days
Onion = assay: Further herbicidal test, various rates; format: in vivo; conditions: scale 0 to 5 (complete kill)
Wheat [14] = assay: Herbicidal test, pre- and post-emergence; format: in vivo; conditions: 10 lb/acre (11.2 kg/ha); scale 0 (no effect) to 3 (complete kill)
[15] = system: Puccinia recondita (wheat); assay: Fungicidal test against foliar disease A (foliage spray plus soil drench); format: in vivo; conditions: 100 ppm spray and drench; 10 days
Tomato = assay: Herbicidal test, pre- and post-emergence; format: in vivo; conditions: 10 lb/acre (11.2 kg/ha); scale 0 (no effect) to 3 (complete kill)
[16] = system: Piricularia oryzae (rice); format: in vivo; conditions: 100 ppm spray and drench; 7 days
Speedwell = assay: Selective herbicidal activity; format: in vivo, Veronica spp; conditions: 28 days, scale 0 to 10 (complete kill)
Description: as §1

SMILES: O=[N+]([O-])c1ccc(Nc2c(Cl)c(F)nc(F)c2Cl)c(C(F)(F)F)c1 [Compound 5]
- Mortality grading (kill) [1]: 3 (3 represents over 90% kill)
- Damage to plants, post-emergence (Rice; 1 lb/acre): 0
- Damage to plants, pre-emergence (Rice; 1 lb/acre): 3
- Damage to plants, post-emergence (Rice; 5 lb/acre): 0
- Damage to plants, pre-emergence (Rice; 5 lb/acre): 5
- Damage to plants, post-emergence (Oat; 1 lb/acre): 3
- Damage to plants, pre-emergence (Oat; 1 lb/acre): 2
- Damage to plants, post-emergence (Oat; 5 lb/acre): 4
- Damage to plants, pre-emergence (Oat; 5 lb/acre): 5
- Damage to plants (Groundsel; 0.5 kg/hectare): 4
- Damage to plants (Groundsel; 4 kg/hectare): 10
- Damage to plants (White mustard; 0.5 kg/hectare): 0
- Damage to plants (White mustard; 4 kg/hectare): 8.5
- Mortality grading (kill) [2]: 1 (1 represents 30 - 49% kill)
- Amount of disease grading, disease G [3]: 3 (0 to 5)
- Mortality grading (kill) [4]: 0 (O represents less than 30% kill)
- Mortality grading (kill) [5]: 3 (3 represents over 90% kill)
- Damage to plants (Wild oat; 0.5 kg/hectare): 0
- Damage to plants (Wild oat; 4 kg/hectare): 5.5
- Mortality grading (kill) [6]: 0 (O represents less than 30% kill)
- Mortality grading (kill) (Aphis fabae): 3 (3 represents over 90% kill)
- Damage to plants, post-emergence (Barley [7]; 1 lb/acre): 3
- Damage to plants, pre-emergence (Barley [7]; 1 lb/acre): 5
- Damage to plants, post-emergence (Barley [7]; 5 lb/acre): 3
- Damage to plants, pre-emergence (Barley [7]; 5 lb/acre): 5
- Damage to plants (Wheat [8]; 0.5 kg/hectare): 0
- Damage to plants (Wheat [8]; 4 kg/hectare): 0
- damage to wheat (in words) (Wheat [8]; Tables 13 and 14): undamaged
- damage to the broadleaved plants (in words) (broadleaved plants): caused damage to the broadleaved plants
- Damage to plants (Barley [9]; 0.5 kg/hectare): 0
- Damage to plants (Barley [9]; 4 kg/hectare): 0
- damage to barley (in words) (Barley [9]; Tables 13 and 14): undamaged
- Damage to plants, post-emergence (Kale; 1 lb/acre): 5
- Damage to plants, pre-emergence (Kale; 1 lb/acre): 0
- Damage to plants, post-emergence (Kale; 5 lb/acre): 5
- Damage to plants, pre-emergence (Kale; 5 lb/acre): 5
- Damage to plants (Chickweed; 0.5 kg/hectare): 8
- Damage to plants (Chickweed; 4 kg/hectare): 10
- Damage to plants (Redshank; 0.5 kg/hectare): 5
- Damage to plants (Redshank; 4 kg/hectare): 10
- Amount of disease grading, disease C [10]: 3 (0 to 5)
- Mortality grading (kill), contact test [11]: 0 (O represents less than 30% kill)
- Damage to plants, post-emergence (Lettuce): 3
- Damage to plants, pre-emergence (Lettuce): 3
- Damage to plants, post-emergence (Maize): 0
- Damage to plants, pre-emergence (Maize): 0
- Damage to plants (Mayweed; 0.5 kg/hectare): 6
- Damage to plants (Mayweed; 4 kg/hectare): 10
- Damage to plants (Annual Nettle; 0.5 kg/hectare): 10
- Damage to plants (Annual Nettle; 4 kg/hectare): 10
- Amount of disease grading, disease D (Uncinula necator (vine)): 3 (0 to 5)
- Damage to plants, post-emergence (Sugar beet; 1 lb/acre): 5
- Damage to plants, pre-emergence (Sugar beet; 1 lb/acre): 0
- Damage to plants, post-emergence (Sugar beet; 5 lb/acre): 5
- Damage to plants, pre-emergence (Sugar beet; 5 lb/acre): 5
- Damage to plants, post-emergence (Pea; 1 lb/acre): 4
- Damage to plants, pre-emergence (Pea; 1 lb/acre): 0
- Damage to plants, post-emergence (Pea; 5 lb/acre): 4
- Damage to plants, pre-emergence (Pea; 5 lb/acre): 3
- Damage to plants, post-emergence (Carrot; 1 lb/acre): 5
- Damage to plants, pre-emergence (Carrot; 1 lb/acre): 2
- Damage to plants, post-emergence (Carrot; 5 lb/acre): 5
- Damage to plants, pre-emergence (Carrot; 5 lb/acre): 5
- Mortality grading (kill) (Megoura viceae): 3 (3 represents over 90% kill)
- Mortality grading (kill) ([12]; 0.01% by weight, water, 1 day): 0 (O represents less than 30% kill)
- abnormal growth effects in larva of mosquitos ([12]; in vivo): abnormal growth effects
- Mortality grading (kill) [13]: 3 (3 represents over 90% kill)
- Damage to plants, post-emergence (Onion; 1 lb/acre): 3
- Damage to plants, pre-emergence (Onion; 1 lb/acre): 0
- Damage to plants, post-emergence (Onion; 5 lb/acre): 5
- Damage to plants, pre-emergence (Onion; 5 lb/acre): 5
- Damage to plants, post-emergence (Wheat [14]): 0
- Damage to plants, pre-emergence (Wheat [14]): 2
- Amount of disease grading, disease A [15]: 3 (0 to 5)
- Damage to plants, post-emergence (Tomato): 3
- Damage to plants, pre-emergence (Tomato): 3
- Amount of disease grading, disease E [16]: 0 (61 to 100)
- Damage to plants (Speedwell; 0.5 kg/hectare): 10
- Damage to plants (Speedwell; 4 kg/hectare): 10

Source: patent US3965109A, “Certain aryl amino pyridines” (priority 1971, dated 1976)
